Measurements as given in paper PMC12175894 (Science Advances, 2025).

Assays:
[1] = Metabolic stability with rat liver microsomes; format: in vitro ADME
mice = test: Elevated plus maze; format: in vivo, mouse
5-HT1ER = 5-HT1ER (Homo sapiens, UniProt P28566); test: BRET Gαi1 activation
adrenergic α2C = adrenergic α2C (Homo sapiens, UniProt P18825); test: Radioligand displacement, [3H]RX821002
5-HT1AR = target: T1, 5-HT1AR (Homo sapiens, UniProt P08908); test: PathHunter β-arrestin 2 inhibition assay, stimulated with serotonin
T1 sequence (P08908 1-422): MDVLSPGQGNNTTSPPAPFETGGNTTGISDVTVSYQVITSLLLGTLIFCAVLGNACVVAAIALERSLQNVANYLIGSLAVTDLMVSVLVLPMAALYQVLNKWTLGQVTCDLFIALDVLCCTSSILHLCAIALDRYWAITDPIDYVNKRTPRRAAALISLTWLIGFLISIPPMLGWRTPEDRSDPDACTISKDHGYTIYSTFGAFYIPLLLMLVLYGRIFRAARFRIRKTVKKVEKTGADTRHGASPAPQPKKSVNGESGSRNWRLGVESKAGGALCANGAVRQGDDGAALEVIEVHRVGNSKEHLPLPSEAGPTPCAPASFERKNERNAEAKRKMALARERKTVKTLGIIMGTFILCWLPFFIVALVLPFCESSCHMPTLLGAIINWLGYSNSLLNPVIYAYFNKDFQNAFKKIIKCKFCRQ

Sequence of adrenergic α2C (P18825 whole entry): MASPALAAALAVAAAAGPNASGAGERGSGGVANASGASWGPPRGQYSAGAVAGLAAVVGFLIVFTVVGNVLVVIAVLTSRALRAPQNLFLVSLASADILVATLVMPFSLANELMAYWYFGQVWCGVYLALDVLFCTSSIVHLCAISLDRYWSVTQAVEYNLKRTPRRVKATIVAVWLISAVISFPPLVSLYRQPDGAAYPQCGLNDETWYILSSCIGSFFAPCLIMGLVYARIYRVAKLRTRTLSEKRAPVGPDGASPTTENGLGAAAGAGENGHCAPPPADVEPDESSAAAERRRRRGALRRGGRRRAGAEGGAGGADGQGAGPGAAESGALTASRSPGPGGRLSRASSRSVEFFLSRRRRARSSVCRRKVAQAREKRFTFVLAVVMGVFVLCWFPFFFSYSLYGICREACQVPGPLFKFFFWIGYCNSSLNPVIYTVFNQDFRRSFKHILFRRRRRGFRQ
Sequence of 5-HT1ER (P28566 whole entry): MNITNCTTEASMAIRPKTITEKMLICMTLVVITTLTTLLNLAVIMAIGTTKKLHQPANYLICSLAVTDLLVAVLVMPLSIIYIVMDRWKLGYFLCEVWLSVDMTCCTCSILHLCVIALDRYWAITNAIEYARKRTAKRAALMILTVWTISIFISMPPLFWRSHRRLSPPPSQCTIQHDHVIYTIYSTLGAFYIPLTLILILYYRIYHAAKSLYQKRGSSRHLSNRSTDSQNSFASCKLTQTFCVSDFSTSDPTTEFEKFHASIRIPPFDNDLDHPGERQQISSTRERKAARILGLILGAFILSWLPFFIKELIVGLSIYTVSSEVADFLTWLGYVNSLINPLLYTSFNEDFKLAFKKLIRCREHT

COc1ccccc1OCCNCCCOc1ccc2c(c1)NC(=O)CO2 [ST171]
intact substrate remaining ([1]; after 1 h incubation): more than 70% | intact substrate remaining ([1]; after 3 h incubation): > 45% | time in center and open arms, plus maze (mice; 1 or 5 mg/kg, 30 min before test): spent more time in the center | anxiolytic effect, plus maze (mice; analgesic dose (10 mg/kg)): anxiolytic effects of the drug disappeared | Emax (5-HT1ER): < 10% | Ki (adrenergic α2C; Ki [nM ± SD]): 28 ± 12 nM | Ki (adrenergic α2C; pKi): 25.9 nM | IC50 (5-HT1AR): 3.9 ± 0.5 nM
